Series [1] has as its system HepG2. The experiment in a line: Cytotoxicity against human HepG2 cells assessed as cell viability up to 100 uM incubated for 24 hrs by MTT assay. It counts as toxicity, cell-based. The settings on record: hepg2, 24 h.
In series [2] the target is Dipeptidyl peptidase 4 (Homo sapiens, UniProt P27487). Kind of series: Inhibition of human recombinant DPP-4 using Gly-Pro-AMC as fluorogenic substrate by measuring fluorescence intensity incubated for 30 mins.
Series [3] concerns Mus musculus. The experiment in a line: Acute anti-hyperglycemic activity against STZ-NA induced diabetic Swiss Albino mouse model assessed as reduction in blood glucose level at 5 mg/kg, po measured up to 24 hrs. It counts as functional, organism-based.
Series [4] relates to Mus musculus. Kind of series: Chronic anti-hyperglycemic activity against STZ-NA induced diabetic Swiss Albino mouse model assessed as reduction in blood glucose level at 5 mg/kg, po measured up to 21 days. It counts as functional, organism-based. As to conditions: time <= 21.0 day.
The test system of series [5] is Mus musculus. Kind of series: Anti-diabetic activity against STZ-NA induced diabetic Swiss Albino mouse model assessed as decrease in blood glucose level at 5 mg/kg, po measured up to 240 mins by Oral glucose tolerance test relative to control. It counts as functional, organism-based.
Series [6] is described as follows: Toxicity in STZ-NA induced diabetic Swiss Albino mouse model assessed as decrease in body weight at 5 mg/kg, po measured after 21 days. It counts as organism-based. As to conditions: in vivo, 504 h, time 21 day.
Series [7] concerns HepG2. The settings on record: dose 15 nM; time 24 hrs.
For series [8], the system named is HepG2. The settings on record: dose 15 nM; time 24 hrs. The source holds these as a separate data set.
For series [9], the species on record is Mus musculus. The settings on record: dose 5 mg/kg; route po; time 21 day.
Description: Reversal of STZ-NA induced total ROS formation in diabetic mouse model assessed as decrease in ROS production by measuring mean fluorescence intensity at 5 mg/kg, po after 21 days (Rvb = 287228 No_unit)
For series [10], the species on record is Mus musculus. The settings on record: dose 5 mg/kg; route po; time 21 day. The source holds these as a separate data set.
The species named for series [11] is Mus musculus. The settings on record: dose 5 mg/kg; route po; time 21 day. The source holds these as a separate data set.
Description: Reversal of STZ-NA induced increase in DPP-4 production in diabetic mouse model assessed as decrease in DPP-4 expression in liver tissue by measuring mean fluorescence intensity at 5 mg/kg, po after 21 days by flow cytometry (Rvb = 322245 No_unit)
The test system of series [12] is Mus musculus. The experiment in a line: Anti-diabetic activity against STZ-NA induced diabetic Swiss Albino mouse model assessed as decrease in blood glucose level at 10 mg/kg, po measured up to 240 mins by Oral glucose tolerance test relative to control. It counts as functional, organism-based.
Series [13] in a line: Toxicity in STZ-NA induced diabetic Swiss Albino mouse model assessed as decrease in body weight at 10 mg/kg, po measured after 21 days. It counts as organism-based. The settings on record: in vivo, 504 h, time 21 day.
Series [14] concerns Mus musculus. Kind of series: Effect on STZ-NA induced histological abnormalities in diabetic mouse model assessed as change in appearance of liver at 10 mg/kg, po after 21 days by hematoxylin and eosin staining based microscopic assay. It counts as functional, organism-based. The settings on record: time 21.0 day.
Series [15] has as its system Mus musculus. The experiment in a line: Effect on STZ-NA induced histological abnormalities in diabetic mouse model assessed as change in hepatocyte density at 10 mg/kg, po after 21 days by hematoxylin and eosin staining based microscopic assay. It counts as functional, organism-based. The settings on record: time 21.0 day.
Series [16] relates to Mus musculus. Kind of series: Effect on STZ-NA induced histological abnormalities in diabetic mouse model assessed as change in hepatocyte structure at 10 mg/kg, po after 21 days by hematoxylin and eosin staining based microscopic assay. It counts as functional, organism-based. The settings on record: time 21.0 day.
In series [17] the test system is Mus musculus. The experiment in a line: Effect on STZ-NA induced histological abnormalities in diabetic mouse model assessed as change in hepatocyte size at 10 mg/kg, po after 21 days by hematoxylin and eosin staining based microscopic assay. The settings on record: time 21.0 day. It counts as functional, organism-based.
The subject of series [18] is Mus musculus. Kind of series: Reversal of STZ-NA induced histological abnormalities in diabetic mouse model assessed as hepatic portal vein at 10 mg/kg, po after 21 days by hematoxylin and eosin staining based microscopic assay. It counts as functional, organism-based. As to conditions: time 21.0 day.
Series [19] concerns Mus musculus. The experiment in a line: Reversal of STZ-NA induced histological abnormalities in diabetic mouse model assessed as enlarged extracellular gaps at 10 mg/kg, po after 21 days by hematoxylin and eosin staining based microscopic assay. The settings on record: time 21.0 day. It counts as functional, organism-based.
For series [20], the system named is Mus musculus. Kind of series: Reversal of STZ-NA induced histological abnormalities in diabetic mouse model assessed as vacuoles at 10 mg/kg, po after 21 days by hematoxylin and eosin staining based microscopic assay. It counts as functional, organism-based. The settings on record: time 21.0 day.
Series [21] has as its system Mus musculus. Kind of series: Reversal of STZ-NA induced histological abnormalities in diabetic mouse model assessed as vacuolation and mild congestion at 10 mg/kg, po after 21 days by hematoxylin and eosin staining based microscopic assay. It counts as functional, organism-based. As to conditions: time 21.0 day.
Series [22] concerns Mus musculus. The experiment in a line: Reversal of STZ-NA induced increase in DPP-4 expression in po dosed diabetic mouse model assessed as decrease in DPP-4 expression in cellular region after 21 days by Immunohistochemical analysis. It counts as functional, organism-based. The settings on record: dose 5-10 mg/kg, time 21.0 day.
The test system of series [23] is Mus musculus. The experiment in a line: Reversal of STZ-NA induced increase in DPP-4 mRNA production in po dosed diabetic mouse model assessed as decrease in DPP-4 mRNA expression in liver tissue by measuring mean fluorescence intensity after 21 days by RT-qPCR analysis. It counts as functional, organism-based. As to conditions: dose 5-10 mg/kg, time 21.0 day.
For series [24], the species on record is Mus musculus. The settings on record: dose 10 mg/kg; route po; time 21 day.
Description: Reversal of STZ-NA induced total ROS formation in diabetic mouse model assessed as decrease in ROS production by measuring mean fluorescence intensity at 10 mg/kg, po after 21 days (Rvb = 287228 No_unit)
For series [25], the species on record is Mus musculus. The settings on record: dose 10 mg/kg; route po; time 21 day. This is another data set of the same source.
For series [26], the species on record is Mus musculus. The settings on record: dose 10 mg/kg; route po; time 21 day. This is another data set of the same source.
Description: Reversal of STZ-NA induced increase in DPP-4 production in diabetic mouse model assessed as decrease in DPP-4 expression in liver tissue by measuring mean fluorescence intensity at 10 mg/kg, po after 21 days by flow cytometry (Rvb = 322245 No_unit)
In series [27] the test system is Mus musculus. Kind of series: Acute anti-hyperglycemic activity against STZ-NA induced diabetic Swiss Albino mouse model assessed as reduction in blood glucose level at 10 mg/kg, po measured up to 24 hrs. It counts as functional, organism-based.
Series [28] relates to Mus musculus. Kind of series: Chronic anti-hyperglycemic activity against STZ-NA induced diabetic Swiss Albino mouse model assessed as reduction in blood glucose level at 10 mg/kg, po measured up to 21 days. It counts as functional, organism-based. The settings on record: time <= 21.0 day.

The structures appear in SMILES notation. The source made the active and inactive calls. The calls are words filed in the database; no cut-off is given here.

Dipeptidyl peptidase 4, sequence (P27487 whole entry): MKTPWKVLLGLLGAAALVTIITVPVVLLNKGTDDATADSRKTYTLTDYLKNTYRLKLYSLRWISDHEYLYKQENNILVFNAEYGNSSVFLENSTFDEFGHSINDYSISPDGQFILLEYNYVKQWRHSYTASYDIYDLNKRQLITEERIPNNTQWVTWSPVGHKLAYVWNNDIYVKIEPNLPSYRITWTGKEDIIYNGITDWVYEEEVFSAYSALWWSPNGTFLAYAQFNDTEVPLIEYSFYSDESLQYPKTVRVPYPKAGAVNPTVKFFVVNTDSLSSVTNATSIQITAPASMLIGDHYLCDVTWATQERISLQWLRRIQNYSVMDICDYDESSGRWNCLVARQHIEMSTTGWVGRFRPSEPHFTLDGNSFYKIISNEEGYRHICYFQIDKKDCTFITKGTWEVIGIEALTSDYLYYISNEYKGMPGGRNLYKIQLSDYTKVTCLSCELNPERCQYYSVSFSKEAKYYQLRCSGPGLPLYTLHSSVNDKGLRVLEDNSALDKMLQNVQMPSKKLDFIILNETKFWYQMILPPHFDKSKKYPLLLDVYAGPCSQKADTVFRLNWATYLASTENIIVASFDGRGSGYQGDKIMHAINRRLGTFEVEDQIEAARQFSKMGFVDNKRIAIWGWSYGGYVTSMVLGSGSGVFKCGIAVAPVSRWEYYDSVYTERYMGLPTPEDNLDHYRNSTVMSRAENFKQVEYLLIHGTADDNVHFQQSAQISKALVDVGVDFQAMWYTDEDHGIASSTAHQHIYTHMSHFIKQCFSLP

On to `Cn1c(=O)c2c(nc(N3CCOCC3)n2Cc2cccc([N+](=O)[O-])c2)n(C)c1=O`, for which the Activity result in [1] was “Non-toxic”.
Consider `Cn1c(=O)[nH]c(=O)c2c1nc(Oc1ccc([N+](=O)[O-])cc1)n2Cc1ccc(C#N)cc1`, for which the Activity result in [1] is recorded as “Non-toxic”.
For the compound `COc1cccc(Cn2c(N3CCOCC3)nc3c2c(=O)n(C)c(=O)n3C)c1`, the Activity result in series [1] is recorded as “Non-toxic”. Also, the IC50 in series [2] turned out to be 27.9 nM.
On to `Cn1c(=O)[nH]c(=O)c2c1nc(N1CCOCC1)n2Cc1ccc(Cl)cc1`, for which, in series [1], the Activity result is “Non-toxic”.
Take `CC#CCn1c(N2CCC[C@@H](N)C2)nc2c1c(=O)n(Cc1nc(C)c3ccccc3n1)c(=O)n2C` [LINAGLIPTIN]: the result in series [3], in series [4] and in [5] was Active. Moreover, in [6], the Activity result is recorded as “Toxic”. Moreover, the Flu intensity in [7] is reported as 3493; in [8], 1212; in series [9], 15930; in series [10], 2520; in series [11], 20334.
Regarding `Cn1c(=O)c2c(nc(Oc3ccc(C=O)cc3)n2Cc2ccc(Cl)cc2Cl)n(C)c1=O`, the Activity entry in series [1] is listed as “Non-toxic”.
On the same count and under the same terms, the same measure for `C=CCn1c(=O)c2c(ncn2Cc2ccc(C#N)cc2)n(Cc2ccccc2)c1=O`: “Non-toxic”.
As for `Cc1ccc(Cn2cnc3c2c(=O)n(Cc2ccc(C#N)cc2)c(=O)n3C)cc1`, the Activity entry in series [1] is listed as “Non-toxic”.
Same read-out and setting: as for `Cn1c(=O)c2c(nc(Oc3ccc(C=O)cc3)n2Cc2ccc(F)cc2)n(C)c1=O`, the entry is “Non-toxic”.
Regarding `Cn1c(=O)c2c(nc(Oc3ccc4ccc(=O)oc4c3)n2CC(=O)c2ccc(-c3ccccc3)cc2)n(C)c1=O`, the Activity result in series [1] is on record as “Non-toxic”.
Still for that read-out and setting: as for `Cn1c(=O)c2c(nc(Oc3ccc(Br)cc3)n2CC(=O)c2ccc(-c3ccccc3)cc2)n(C)c1=O`, the entry is “Non-toxic”; as for `Cn1c(=O)c2c(nc(N3CCOCC3)n2Cc2ccc(F)cc2)n(C)c1=O`, “Non-toxic”.
Still for that read-out and setting: as for `Cn1c(=O)n(Cc2ccccc2)c(=O)c2c1nc(Oc1ccc([N+](=O)[O-])cc1)n2Cc1ccc(C#N)cc1`, the entry is “Non-toxic”.
For `Cn1c(=O)c2c(nc(Oc3ccc([N+](=O)[O-])cc3)n2CC(=O)c2ccc(-c3ccccc3)cc2)n(C)c1=O`, the Activity result in series [1] was “Non-toxic”.
Consider `C=CCn1c(Oc2ccc([N+](=O)[O-])cc2)nc2c1c(=O)n(Cc1nc(C)c3ccccc3n1)c(=O)n2C`, for which the Activity result in [1] is “Non-toxic”; in series [6], “Toxic”; in series [13], “Toxic”; in [18], “Active; Hepatic Portal Vein Looked Similar To Normal Group”; in series [22], “Dose-dependent-effect”; in series [23], “Dose-dependent-effect”. Moreover, the result in series [5], in series [12], in series [19] and in series [20] was Active. Moreover, the result in series [14], in [15], in series [16], in series [17] and in series [21] was inactive. In addition, the Flu intensity in [7] is reported as 82988; in series [8], 3565; in series [9] it was 165558; in [24], 138121; in series [10] it was 36602; in series [25], 9136. Moreover, the values for the Flu intensity in series [11] and in series [26] were 248748 and 154821, respectively.
Regarding `Cn1c(=O)c2c(nc(N3CCOCC3)n2Cc2ccccc2)n(C)c1=O`, the Activity result was “Non-toxic” in series [1]; “Active; Results Comparable To Linagliptin” in [27]; “Active; Results Comparable To Linagliptin” in [28]; “Toxic” in [6]; “Toxic” in series [13]; “Active; Hepatic Portal Vein Looked Similar To Normal Group” in series [18]. Besides, the Activity result in series [22] and in series [23] was “Dose-dependent-effect” each time. Besides, in [2], the IC50 was found to be 15.7 nM. Besides, the outcome in series [5], in series [12], in series [19] and in [20] was Active. Further, the outcome in [14], in [15], in series [16], in series [17] and in [21] was inactive. Moreover, the Flu intensity is recorded as 6930 in [7]; 1460 in series [8]; 82220 in series [9]; 49658 in series [24]; 11036 in series [10]; 4811 in series [25]. Besides, the Flu intensity in series [11] was found to be 240545; in series [26], 89888.
As for `Cn1c(=O)c2c(nc(Oc3ccc([N+](=O)[O-])cc3)n2Cc2ccc(Cl)cc2Cl)n(C)c1=O`, in [1], the Activity entry was “Non-toxic”.

The record behind these values is ChEMBL document CHEMBL6078720, “Design and synthesis of novel 3,7-dihydro-1H-purine-2,6-diones as DPP-4 inhibitors: An in silico, in vitro and in vivo approach” (Eur J Med Chem, 2025).
